Where a name gives a salt, the structure may show the parent alone.
Experiments:
[1] = test system: CT-26 Colon carcinoma cells; assay: CT-26 colon carcinoma lung metastases model, alone or with doxorubicin or docetaxel; type: in vivo, Balb/C mice; conditions: CT-26 lung metastases; I.P. every 3 days for 3 cycles; day 20
Description: FIG. 3 illustrates the effect of compounds administered in conjunction with doxorubicin in an in vivo model of metastatic colon cancer (CT-26 adenocarcinoma). Syngeneic CT-26 Colon carcinoma cells were injected I.V. in order to establish lung metastases in Balb/C mice. Beginning 10 days after cells were injected, indicated test agents were given I.P. every 3 days for 3 cycles. Animals were sacrificed at day 20, lungs were collected, and weighed. Net tumor burden is the weight of tumor-bearing lungs minus the average weight of normal control lungs. N=5/group, p<0.02. In these graphs, compound A is 6,7-bis(4-hydroxyphenyl)-pteridin-4-ylamine sulfate salt, and compound B is 6,7-diphenyl-pteridine-2,4-diamine.
FIG. 4 illustrates the effects of compounds of the present invention for co-drug therapy with Taxotere as described herein. Syngeneic CT-26 Colon carcinoma cells were used in order to establish lung metastases in Balb/C mice as described for FIG. 3. 6,7-bis(4-hydroxyphenyl)-pteridin-4-ylamine, sulfate salt (compound A) and 6,7-diphenyl-pteridine-2,4-diamine (compound B) from FIG. 1 are shown in FIG. 4.
FIG. 6 illustrates the effect of compounds administered in conjunction with docetaxel in the in vivo model of metastatic colon cancer (CT-26 adenocarcinoma) described for FIG. 4. N=5/group, p<0.02. […]

[2] = test system: acute myocardial infarct; assay: Rat acute myocardial infarct model (60 min LAD occlusion, reperfusion); type: in vivo, Sprague-Dawley rats; conditions: 1.5 mg/kg IV at 90 min post-reperfusion, 24 hr
Description: A rodent model of acute myocardial infarct, in which the proximal left anterior descending coronary artery (LAD) is occluded for 60 min followed by reperfusion, was used to determine whether test agents reduced infarct size at 24 hours.
Myocardial infarcts were created in Sprague-Dawley rats (200-300 g body weight) by a 60 min occlusion of the LAD followed by LAD reperfusion. At 90 min post-reperfusion, either vehicle alone or test agents were injected IV. At 24 hr post-treatment, the ischemic zone (area at-risk, AAR) was delineated by re-ligation of the LAD followed by IV injection of alkali blue dye, after which hearts were sectioned along the short axis and stained using triphenyltetrazolium chloride to delineate viable from infarcted myocardium. Photographic images were then analyzed using morphometric software to calculate infarct area as a percent of the at-risk area.
The following studies were performed as described above, except that the timing of 3-[2,4-diamino-6-(3-hydroxyphenyl)pteridin-7-yl] phenol dihydrochloride salt administration (at 0.1 mg/kg) was varied. In one group, 3-[2,4-diamino-6-(3-hydroxyphenyl)pteridin-7-yl] phenol dihydrochloride salt was administered at both 60 and 240 min post-occlusion.
In a porcine MI model (90 min of LAD occlusion followed by complete reperfusion), a single 0.3 mg/kg IV bolus delivered 30 min post-reperfusion reduced infarct size by […] vs. controls (40% vs. 56%, N=12-13, P=0.03).

[3] = test system: cerebral stroke; assay: Cerebral stroke model, permanent middle cerebral artery occlusion; type: in vivo, mice; conditions: 1 mg/kg BW IV 60 min after ligation, 24 hours
Description: A rodent model of cerebral stroke, in which the middle cerebral artery is permanently occluded, was used to determine whether test agents reduced infarct size at 24 hours.
Cerebral strokes were created in mice by permanent ligation of the middle cerebral artery using a cauterizing tool, followed 60 min later by IV injection of either vehicle alone (50% PEG400 in water) or test agents (at 1 mg/kg BW). Twenty four hours later, brains were sectioned and stained using triphenyltetrazolium chloride to delineate viable from infarcted tissue. Photographic images were then analyzed using morphometric software to calculate infarct area.

[4] = test system: edema formation induced using histamine as an agonist; assay: Miles assay with histamine as agonist; type: in vivo, Sprague-Dawley rats; conditions: 1.5 mg/kg; histamine 10 μg/injection site; vehicle 12
Description: Sprague-Dawley rats were first injected IV with vehicle alone or test agent, followed by IV injection of Evans blue dye, followed by intradermal injections of saline and VEGF (200 ng/injection site) along both shaved flanks. After 45 min, intradermal injection sites were photographed and then scored by a blinded observer for extravasation of Evans blue dye into the dermis (dermal bluing) according to a 4 point scoring system (3=maximal bluing, ≧75% of response in vehicle-treated animals; 2=medium bluing, >25% but <75% of vehicle-treated animals; 1=minimal bluing, ≦25% of vehicle-treated animals; 0=bluing equivalent to saline injection sites on same animal). Individual scores for 4 injection sites (from 2 separate animals) were summed and are shown as a scale of 0-12, with a lower score indicating the greater anti-edema activity; note that all vehicle-treated groups score a value of 12, based on the scoring system outlined above.
The ability of test agents to influence edema induced by agonists other than VEGF was also tested. Compounds cited in this application inhibited edema formation induced using histamine as an agonist, for example, as shown below.
The ability of test agent to influence vascular edema was tested as above, except that the ability to block edema was tested using either VEGF or histamine as the agonist (200 ng and 10 μg/injection site, respectively).

Nc1ncnc2nc(-c3ccc(O)cc3)c(-c3ccc(O)cc3)nc12 [compound A, 6,7-bis(4-hydroxyphenyl)-pteridin-4-ylamine sulfate salt]
reduction of tumor burden in combination with docetaxel [1]: greater than 80% | reduction of tumor burden in combination with doxorubicin [1]: greater than 60% | Infarct (% AAR, mean ± SEM) [2]: 60.6 ± 1.8 % AAR | % Infarct reduction ([2]; vs vehicle): 20% | Infarct area in mm^3 (mean ± SEM) [3]: 18.3 ± 2.6 mm^3 | % Infarct reduction ([3]; vs vehicle): 53% | Score with histamine as agonist (scale of 0-12) [4]: 3

— patent publication US20050282814A1, “Vasculostatic agents and methods of use thereof” (TargeGen, Inc., priority 2002, published 2005)
